Values joined by “and” are separate entries in the source; they are usually repeats but may differ in a detail not shown here. Identical values can stand only once. “Also recorded” adds a separate entry of the source. Like-named read-outs stand apart in the source and are kept apart here.
Assays:
P. aeruginosa LysRS [1] = target: T1, P. aeruginosa LysRS (Pseudomonas aeruginosa, UniProt Q9HXU0); assay: SPA-based tRNA aminoacylation assay; assay type: biochemical
T1 sequence (Q9HXU0 1-501): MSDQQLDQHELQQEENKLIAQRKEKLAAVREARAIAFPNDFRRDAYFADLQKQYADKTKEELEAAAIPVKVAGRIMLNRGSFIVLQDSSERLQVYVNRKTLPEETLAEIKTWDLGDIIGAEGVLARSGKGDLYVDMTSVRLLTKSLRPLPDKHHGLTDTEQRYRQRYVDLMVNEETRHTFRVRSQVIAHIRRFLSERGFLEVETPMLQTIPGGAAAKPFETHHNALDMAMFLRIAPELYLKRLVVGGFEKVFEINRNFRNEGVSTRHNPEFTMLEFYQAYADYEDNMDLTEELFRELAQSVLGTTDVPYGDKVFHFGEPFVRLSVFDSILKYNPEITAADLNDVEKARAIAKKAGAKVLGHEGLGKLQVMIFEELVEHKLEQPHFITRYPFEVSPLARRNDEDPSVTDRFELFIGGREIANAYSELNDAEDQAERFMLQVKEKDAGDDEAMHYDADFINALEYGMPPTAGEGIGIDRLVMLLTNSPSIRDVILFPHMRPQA

P. aeruginosa LysRS [2] = target: T1, P. aeruginosa LysRS; assay: Binding mode; assay type: biochemical; details: for mechanism of inhibition with respect to ATP: IC50 at ATP 25 to 1000 μM, amino acid constant; for mechanism of inhibition with respect to ATP / mechanism of inhibition with respect to lysine: LysRS 0.01 μM; for mechanism of inhibition with respect to lysine: IC50 at lysine 25 to 300 μM, ATP 2.5 mM
M. catarrhalis = assay: Time-kill kinetic assay; assay type: cell-based, Moraxella catarrhalis; details: 4×MIC, 0 to 24 h
[3] = system: gram-positive bacterial cultures; details: cited from earlier work
[4] = system: human embryonic kidney 293 cells (HEK-293)
[5] = system: human embryonic kidney 293 cells (HEK-293); assay: MTT cytotoxicity assay; details: HEK-293, MTT, 25 to 400 μg/mL, 24 h
eukaryotic LysRS = details: cited from earlier work
P. aeruginosa LysRS [6] = target: T1, P. aeruginosa LysRS; assay: ATP:PPi exchange reaction, substrate kinetics; details: substrate varied, other substrate held at 2 mM; LysRS 0.1 μM

Structure (SMILES): C=CC1=C(C)/C(=C/c2[nH]c(Cc3[nH]c(/C=C4\NC(=O)C(C)=C4C=C)c(C)c3CCC(=O)O)c(CCC(=O)O)c2C)NC1=O [BM01D09, bilirubin]
- IC50 (P. aeruginosa LysRS [1]): 17 µM
- Ki (P. aeruginosa LysRS [2]): 3.5 µM
- mechanism of inhibition with respect to ATP (P. aeruginosa LysRS [2]): competing with ATP; also recorded: IC50 also increased; also recorded: competitive inhibition
- mechanism of inhibition with respect to ATP (P. aeruginosa LysRS [2]; listed as bilirubin): competitive with ATP
- mechanism of inhibition with respect to lysine (P. aeruginosa LysRS [2]): no change in the IC50
- mechanism of inhibition with respect to lysine (P. aeruginosa LysRS [2]; listed as bilirubin): noncompetitive with lysine
- global mode of inhibition (time-kill) (M. catarrhalis): bacteriostatic
- inhibition of growth of gram-positive bacterial cultures [3]: inhibitory
- CC50 relative to MICs against susceptible bacteria [4]: 6-20 fold

Structure (SMILES): S=C(N/N=C1\CCCc2c1[nH]c1ccc(C3CCCCC3)cc21)Nc1ccccc1 [BT06F11, 1-[(~›E‹)-(6-cyclohexyl-2,3,4,9-tetrahydrocarbazol-1-ylidene)amino]-3-phenylthiourea]
- mechanism of inhibition with respect to ATP (P. aeruginosa LysRS [2]): mechanism other than substrate competition; also recorded: noncompetitive; also recorded: not observed to be competitive
- mechanism of inhibition with respect to lysine (P. aeruginosa LysRS [2]): mechanism other than substrate competition; also recorded: noncompetitive; also recorded: not observed to be competitive
- global mode of inhibition (time-kill) (M. catarrhalis): bactericidal; also recorded: inhibited growth by killing the bacteria
- toxicity to human cell growth (in words) [5]: not toxic at any concentration tested; also recorded: not observed to be toxic

Structure (SMILES): O=C(CCCCCCCCC(=O)N/N=C/c1ccc([N+](=O)[O-])o1)N/N=C/c1ccc([N+](=O)[O-])o1 [BT08F04, ~›N‹,~›N‹′-bis[(~›E‹)-(5-nitrofuran-2-yl)methylideneamino]decanediamide]
- mechanism of inhibition with respect to ATP (P. aeruginosa LysRS [2]): competitive with ATP; also recorded: competitive inhibition
- mechanism of inhibition with respect to lysine (P. aeruginosa LysRS [2]): uncompetitive with the amino acid
- Ki (P. aeruginosa LysRS [2]; read-out: mean Ki, calculated from IC50 values determined at 75 μM lysine and 2.5 mM ATP, multiple determinations): 3.4 µM
- global mode of inhibition (time-kill) (M. catarrhalis): bactericidal; also recorded: inhibited growth by killing the bacteria

Structure (SMILES): C[C@H]1CCC[C@H](C[C@H]2Cc3cc(O)cc(O)c3C(=O)O2)O1 [cladosporin]
- inhibition of eukaryotic LysRS (in words) (eukaryotic LysRS): potent ATP competitive inhibitor

Structure (SMILES): NCCCC[C@H](N)C(=O)O [lysine]
- kcat^obs (P. aeruginosa LysRS [6]): 13 s⁻¹ and 13.3 s⁻¹

Reference: publication PMC6925310 (SLAS discovery : advancing life sciences R & D, 2019)
